Measured values published in patent publication US20220380348A1, “AXL INHIBITOR FORMULATIONS” (Sumitomo Dainippon Pharma Oncology, Inc., priority 2019, published 2022).
Read-outs that look alike come from different tables or passages of the source.

Experiments:
[1] = Dynamic Vapor Sorption (DVS), hygroscopicity/water uptake; format: physicochemical; settings: for Hygroscopicity: DVS up to 80% RH at 25° C.; for water uptake at 80% RH: DVS; for water uptake at 80% RH / Form change (FC) after DVS: 25° C.; for Form change (FC) after DVS: at the end of the DVS test, up to 80% RH
Procedure: The Dynamic Vapour Sorption studies were performed using a Surface Measurement Systems Ltd. DVS-1 No Video, equipment #2126. The sample is loaded into balance pan, typically 20-30 mg, and equilibrated at 0% RH. […] After completion of the sorption cycle, the sample was dried using the same method. The software used for data collection is DVSWin v3.01 No Video. Data analysis is performed using DVS Standard Analysis Suite v6.3.0 (Standard).

[2] = Solid state stability at 40° C./75% RH for 3 weeks (HPLC purity, form change); format: physicochemical; settings: for chemical stability (HPLC purity change, in words): 3 weeks at 40° C. and 75% relative humidity; for Form Change at 3 weeks / HPLC Purity at 3 weeks: 3 weeks under 40° C./75% RH; for Initial HPLC Purity: before storage
Procedure: Agilent 1260 HPLC was utilized and detailed chromatographic conditions for purity and solubility measurement are listed in Table 15 below.
The table below summarizes the characterization and solid state stability results observed for FB and Forms A, B, and D. Samples were prepared and data was obtained according to the procedures and processes listed above unless otherwise specified. More procedures, processes, and results are listed below in Table 16.

[3] = Kinetic solubility in bio-relevant buffers (FaSSIF, FeSSIF, SGF); format: physicochemical; settings: 37° C.
[4] = Pharmacokinetic testing of salt forms, oral dosing in rats (Example 5); format: in vivo; settings: fasted male Sprague-Dawley rats, mean values
[5] = pH solubility in pH 2, 4, 6, 8 and 10 buffers; format: physicochemical; settings: 37° C.; for Form change (FC) of residual solid, pH 4.0: pH 4.0 buffer; for Form change (FC) of residual solid, pH 6.0: pH 6.0 buffer; for Form change (FC) of residual solid, pH 8.0: pH 8.0 buffer; for Form change (FC) of residual solid, pH 10.0: pH 10.0 buffer
[6] = Stability studies of crystalline forms (Table 17, stability by HPLC); format: physicochemical; settings: for Stability by HPLC (in words): stability studies of Table 17; for Stability Results, 40° C.: stored at 40° C.; for Stability Results, 40° C./75% RH: stored at 40° C./75% RH; for Stability Results, 60° C.: stored at 60° C.; for Stability Results, 60° C./75% RH: stored at 60° C./75% RH
[7] = Moisture sorption isotherm of crystalline forms; format: physicochemical; settings: for crystal form by XRPD after the moisture absorption/desorption cycle: XRPD before and after moisture sorption isotherm
[8] = Salt screening, stability of salt forms; format: physicochemical; settings: salt screening of Compound 1
Procedure: The salt screen was performed using the Crystal16 equipment.

[9] = dose mg/kg: Compound 1 18.2, Phosphate 14.3, Tartrate 18.7, Malate 18.6, Succinate 18.7, Benzenesulfonate 17.6

Compound | chemical stability (HPLC purity change, in words) [2] | Form Change at 3 weeks [2] | HPLC Purity at 3 weeks [2] [area %] | Initial HPLC Purity [2] [area %] | Form change (FC) of residual solid, FaSSIF ([3]; FaSSIF, 24 hours) | Form change (FC) of residual solid, pH 4.0 ([5]; 24 hours) | Form change (FC) of residual solid, pH 6.0 ([5]; 24 hours) | Form change (FC) of residual solid, pH 8.0 ([5]; 24 hours) | Form change (FC) of residual solid, pH 10.0 ([5]; 24 hours) | Stability Results, Initial [6] [%] | Stability Results, 40° C. [6] [%] | Stability Results, 40° C./75% RH [6] [%] | Stability Results, 60° C. [6] [%] | Stability Results, 60° C./75% RH [6] [%] | Moisture sorption isotherm (in words) [7] | crystal form by XRPD after the moisture absorption/desorption cycle [7] | also measured
CN1CCN(Cc2ccc(Nc3ncc(Cl)c(Nc4ccccc4S(=O)(=O)N(C)C)n3)cc2)CC1 [Compound 1, 2-((5-chloro-2-((4-((4-methylpiperazin-1-yl)methyl)phenyl)amino)pyrimidin-4-yl)amino)-N,N-dimethylbenzenesulfonamide] | no significant HPLC purity decrease | No | 98.6 | 98.3 | No | Yes | No | No | No |  |  |  |  |  |  |  | Hygroscopicity ([1]; listed as Free Base): Non-hygroscopic/; Hygroscopicity ([1]; listed as free base): non-hygroscopic; water uptake at 80% RH ([1]; listed as Free Base): 0.07%; water uptake at 80% RH ([1]; listed as free base): less than 0.2%; Form change (FC) after DVS ([1]; listed as Free Base): No; Form change (FC) after DVS ([1]; listed as free base): no form change; Form change (FC) of residual solid, FeSSIF ([3]; FeSSIF, 24 hours): No; Form change (FC) of residual solid, SGF ([3]; SGF, 24 hours): No; bioavailability ([4]; rat, plasma, 18.2 mg/kg, dose mg/kg: Compound 1 18.2, Phosphate 14.3, Tartrate 18.7, Malate 18.6, Succinate 18.7, Benzenesulfonate 17.6): 26.9%; AUC(0-t) ([4]; rat, plasma, 18.2 mg/kg, dose mg/kg: Compound 1 18.2, Phosphate 14.3, Tartrate 18.7, Malate 18.6, Succinate 18.7, Benzenesulfonate 17.6, read-out: AUC0-24 hours): 458 ng·h/mL; Cmax ([4]; rat, plasma, 18.2 mg/kg, dose mg/kg: Compound 1 18.2, Phosphate 14.3, Tartrate 18.7, Malate 18.6, Succinate 18.7, Benzenesulfonate 17.6, read-out: Cmax): 116 ng/mL; Tmax ([4]; rat, plasma, 18.2 mg/kg, dose mg/kg: Compound 1 18.2, Phosphate 14.3, Tartrate 18.7, Malate 18.6, Succinate 18.7, Benzenesulfonate 17.6, read-out: Tmax): 50 min; Form change (FC) of residual solid, pH 2.0 ([5]; pH 2.0 buffer, 24 hours): Yes
CN1CCN(Cc2ccc(Nc3ncc(Cl)c(Nc4ccccc4S(=O)(=O)N(C)C)n3)cc2)CC1.O=C(O)C(O)C(O)C(=O)O.O=C(O)C(O)C(O)C(=O)O [Form A, 2-((5-chloro-2-((4-((4-methylpiperazin-1-yl)methyl)phenyl)amino)pyrimidin-4-yl)amino)-N,N-dimethylbenzenesulfonamide di-tartrate salt] | no significant HPLC purity decrease | No | 99.7 | 99.6 |  | Yes | Yes | Yes | Yes | 99.3 | 99.3 | 99.3 | 99.3 | 99.3 | hygroscopic | maintained | Stability by HPLC (in words) ([6]; di-tartrate salt): No significant changes; Stability by HPLC (in words) ([6]; listed as A, di-tartrate salt): Stable; water uptake at 80% RH ([1]; di-tartrate salt): 4.6%; Form change (FC) after DVS [1]: No; pH solubility compared between polymorphs (in words) ([5]; pH 2, 4 and 6 buffers): higher solubility than other polymorphs
CN1CCN(Cc2ccc(Nc3ncc(Cl)c(Nc4ccccc4S(=O)(=O)N(C)C)n3)cc2)CC1.O=C(O)C(O)C(O)C(=O)O [Form D, 2-((5-chloro-2-((4-((4-methylpiperazin-1-yl)methyl)phenyl)amino)pyrimidin-4-yl)amino)-N,N-dimethylbenzenesulfonamide mono-tartrate salt] | no significant HPLC purity decrease | No | 98.3 | 98.8 | Yes | Yes | Yes | Yes | Yes | 98.4 | 98.2 | 98.4 | 98.2 | 98.2 | hygroscopic | transformed to the other forms | Stability by HPLC (in words) ([6]; listed as D, mono-tartrate salt): Stable; Stability by HPLC (in words) ([6]; mono-tartrate salt): No significant changes; water uptake at 80% RH ([1]; mono-tartrate salt): 5.2%; Form change (FC) after DVS ([1]; mono-tartrate salt): form change observed and Yes; Kinetic solubility in FaSSIF compared between forms (in words) ([3]; FaSSIF): lower solubility than other Forms A and B
CN1CCN(Cc2ccc(Nc3ncc(Cl)c(Nc4ccccc4S(=O)(=O)N(C)C)n3)cc2)CC1.O=C(O)C[C@H](O)C(=O)O [Malate Salt] |  |  |  |  |  |  |  |  |  |  |  |  |  |  |  |  | AUC0-24 hours [4, 9]: 515 ng·h/mL; Cmax [4, 9]: 134 ng/mL; Tmax [4, 9]: 30 min
CN1CCN(Cc2ccc(Nc3ncc(Cl)c(Nc4ccccc4S(=O)(=O)N(C)C)n3)cc2)CC1.O=P(O)(O)O [Phosphate Salt] |  |  |  |  |  |  |  |  |  |  |  |  |  |  |  |  | stability of the salt form (in words) [8]: undesirable stability characteristics
